Holding throughout (type): physicochemical
Series [1] in a line: Dynamic vapor sorption (DVS) hygroscopicity. Here is the method: In this application, dynamic moisture adsorption analysis (DVS) data and isothermal adsorption analysis data were obtained using a TA Instruments Q5000 TGA; parameters are as follows: temperature: 25°C; relative humidity range: 0%RH-80%RH; dm/dt =0.001%/min; equilibration time: 90min; gas: N2; sample pan: platinum pan.

Series [2] can be described thus: Compressibility study (tablet compression, hardness, tensile strength). The settings on record: for hardness: radial breaking force, tablet hardness tester, main pressure 1.8 KN; for diameters / thicknesses: tablet, Φ7.5mm punch, mean main pressure 1.8 KN. The protocol:
The tablet compression was conducted using a Tianxiang rotary tablet press. A circular punch with a diameter of 7.5 mm (Φ7.5mm), a filling depth of 17.9 mm and a mean main pressure of 1.8 KN were used. The tablets' radial breaking force (hardness, H) was measured using a tablet hardness tester. The tablets' diameter (D) and thickness (L) were measured using a vernier caliper. The tensile strength (T) of the powder was calculated using the formula T=2H/πDL*9.8. The results are shown in Table 5: Table 5 Compressibility of Form 2 of tolebrutinib monohydrochloride and Form 1 of tolebrutinib monohydrochloride

Series [3] in a line: Stability study of the solid forms under long-term, accelerated, light and oxidation conditions (HPLC and XRPD). The settings on record: for Purity after placing / Purity after: HPLC; for Purity after placing: initial purity 99.46%; for Sample after placing / crystal form after storage: XRPD; for Purity after: initial purity 99.50%. Here is the method: In this application, X-ray powder diffraction (XRPD) data were collected using a BrukerD8 Advance diffractometer; parameters are as follows: Cu radiation; wavelength: 1.54Å; Current voltage: 40KV, 40mA; Scan range: 3 to 40°2θ.
In this application, the HPLC parameters for chemical stability and solubility are as follows:
An appropriate amount of Form 2 of tolebrutinib monohydrochloride prepared in example 2-1 of this application was placed under long-term (25°C/60% RH/open), accelerated (40°C/75% RH/open), light (25°C/4500lx/closed), and oxidation (in a urea peroxide atmosphere) conditions. Table 1 Stability of Form 2 of tolebrutinib monohydrochloride
An appropriate amount of tolebrutinib monohydrochloride Form1 sample prepared in Example 3-1 of this application was taken and placed under long-term (25°C/60% RH/open) and accelerated (40°C/75% RH/open) conditions, HPLC and XRPD testing were regularly conducted. Table 2 Stability of Form 1 of tolebrutinib monohydrochloride

Series [4] is described as follows: Stability of the crystal form in tablets (XRPD before and after storage). The settings on record: 25°C/60% RH. The protocol:
(§1) Following the formulation in Table 6, API, lactose hydrate, polyvinylpyrrolidone, hydroxypropyl cellulose, microcrystalline cellulose and magnesium stearate were mixed and compressed to obtain a tablet core. Subsequently, the tablet cores were coated with a solution/suspension for film coating. Table 6 Tablet formulations
The tablets containg Form 2 of tolebrutinib monohydrochloride Form 2 tablets and Form 1 of tolebrutinib monohydrochloride were placed at 25°C/60% RH for 14 days, respectively. XRPD tests were performed before and after storage. The XRPD comparison plots before and after storage are shown in FIG. 26 and FIG. 27, respectively.

Series [5] can be described thus: Solubility in water (supersaturated solution, content by HPLC). The settings on record: for Solubility: 2 hours, monohydrochloride. An excerpt:
In this application, the HPLC parameters for chemical stability and solubility are as follows: […]

Series [6] is described as follows: Crystal form before and after the tableting process (XRPD).
Text: as §1

The nature of series [7]: Stability study of the solid forms under long-term, accelerated, light and oxidation conditions (HPLC and XRPD). The settings on record: long-term (25°C/60%RH) and accelerated (40°C/75%RH) conditions for 14 days; XRPD.
Setting [8] is: listed as Form 1 of monohydrochloride.
Where [9] appears, read: light (25°C/4500lx/closed) and oxidation (in a urea peroxide atmosphere) conditions.
Where [10] appears, read: listed as Form 2 of monohydrochloride.
The mark [11] stands for this setting: light, 25°C/45001x/closed, 14 days.
The mark [12] stands for this setting: long-term (25°C/60%RH) and accelerated (40°C/75%RH) conditions for 14 days.
[13] abbreviates: oxidation, in a urea peroxide atmosphere, 14 days.

Where a name gives a salt, the structure may show the parent alone.

Here are results for three molecules from patent EP4342468A1, “TOLEBRUTINIB SALT AND CRYSTAL FORM THEREOF, PREPARATION METHOD THEREFOR, PHARMACEUTICAL COMPOSITION THEREOF, AND USE THEREOF” (Hangzhou Solipharma Co., Ltd., priority 2021, dated 2022).

By Solubility is commonly meant how much of the substance goes into solution per volume. As to `C=CC(=O)N1CCC[C@@H](n2c(=O)n(-c3ccc(Oc4ccccc4)cc3)c3c(N)nccc32)C1` [Form 1 of tolebrutinib monohydrochloride, tolebrutinib monohydrochloride], the DVS weight change entry in series [1] (between 20% RH to 80% RH at 25 °C) is reported as “about 1.2%”. In addition, the “weight gain (hygroscopicity)” value in series [1] (humidity range of 0%RH to 80%RH) is recorded as ~0.9%. Also, the tensile strength in series [2] (calculated with T=2H/πDL*9.8, listed as Form 1 of monohydrochloride) is reported as 1.2 MPa. In series [2] (setting [8]), this molecule had a hardness of 6.16 kg, a diameters of 7.49 mm and a thicknesses of 4.19 mm. Also, in series [3] (25°C/60%RH/open, 10 months), the Purity after placing is listed as 99.37% and the Sample after placing result is “Form 1 of monohydrochloride”. Moreover, in series [3] (40°C/75%RH/open, 10 months), the Purity after placing turned out to be 98.63% and the Sample after placing entry is listed as “Form 1 of monohydrochloride”. Besides, the time remaining stable entry in series [3] (setting [9]) is recorded as “at least 14 days”. Besides, the time remaining stable entry in series [3] (long-term (25°C/60% RH/open) and accelerated (40°C/75% RH/open) conditions, monohydrochloride) is listed as “at least 10 months”. In addition, the “crystal form after storage” value in series [3] (long-term and accelerated conditions for 10 months) is “remains unchanged”. For the same molecule, the “time crystal form remains stable in tablets / formulation with excipients” value in series [4] was “at least 14 days”. Also, the Solubility entry in series [5] (listed as Form 1 of the monohydrochloride salt of tolebrutinib) is recorded as “approximately 8.3 mg/mL”. Further, in series [5], the Solubility came out at 8260 µg/mL. In addition, in series [6], the “crystal form before and after the tableting process” value was “remained unchanged”.

Usually solubility stands for the concentration that dissolves in the medium under given conditions. Higher therefore signals much dissolved substance. With `C=CC(=O)N1CCC[C@@H](n2c(=O)n(-c3ccc(Oc4ccccc4)cc3)c3c(N)nccc32)C1` [Form 2 of tolebrutinib monohydrochloride, tolebrutinib monohydrochloride], the “crystal form before and after DVS” value in series [1] (XRPD before and after DVS) is on record as “remained unchanged”. The tensile strength in series [2] (calculated with T=2H/πDL*9.8, listed as Form 2 of monohydrochloride) was 1.0 MPa. For the same molecule, the hardness in series [2] (setting [10]) came to 5.33 kg. In series [2] (setting [10]), this molecule registered a diameters of 7.50 mm. In series [2] (setting [10]), this molecule displayed a thicknesses of 4.23 mm. Further, the Purity after in series [3] (25°C/60%RH/open, 14 days) is given as 99.26%; in series [3] (40°C/75%RH/open, 14 days) it was 99.30%; in series [3] (setting [11]), 99.35%; in series [3] (setting [13]), 99.07%. Besides, the Sample after placing result in series [3] (25°C/60%RH/open, 14 days) is “Form 2 of monohydrochloride”; in series [3] (40°C/75%RH/open, 14 days) it was “Form 2 of monohydrochloride”; in series [3] (setting [11]), “Form 2 of monohydrochloride”; in series [3] (setting [13]), “Form 2 of monohydrochloride”. Further, the time remaining stable result is recorded as “at least 14 days” in series [3] (setting [9]); “at least 14 days” in series [3] (long-term (25°C/60% RH/open) and accelerated (40°C/75% RH/open) conditions, listed as Form 2 of monohydrochloride, monohydrochloride). Moreover, the “crystal form after storage” value in series [3] (setting [12]) is reported as “remains unchanged”. In series [4], the “time crystal form remains stable in tablets / formulation with excipients” value is recorded as “at least 14 days”. In addition, the solubility at 2 hours in series [5] (water, thermodynamic from solid) was ~7000 µg/mL. For the same molecule, in series [6], the “crystal form before and after the tableting process” value was “remained unchanged”.

As to `C=CC(=O)N1CCCC(n2c(=O)n(-c3ccc(Oc4ccccc4)cc3)c3c(N)nccc32)C1.O=C(O)C=CC(=O)O` (centres unmarked) [maleate Form 1, tolebrutinib maleate], the figures for the “crystal form after storage” value in series [7] and in series [3] (setting [12]) were “remains unchanged” and “remained the same crystalline form”, respectively.
